Data reported in patent US20200268864A1, “CANCER VACCINE COMPOSITIONS AND METHODS FOR USING SAME TO TREAT CANCER” (Dana-Farber Cancer Institute, Inc., priority 2017, published 2020).
Entries after “also recorded” stand apart in the source; their conditions may differ. Residues, ends and D or L forms follow the SMILES beside them. *: point of attachment. Cbz = O=C(OCc1ccccc1)*; CH2F = FC*

How the values were obtained:
[1] = system: Brca1-proficient and Brca1-deficient tumor cells; assay: Measurement of IC50 value in tumor cells (MTS, 72 h); assay type: cell-based; conditions: three pairs of models; for gemcitabine except PPM and PBM cells
Protocol: Tumor cells were seeded in 96-well plates at a density of 1000-3000/well and allowed to adhere overnight. Cells were then exposed to appropriate concentrations of therapeutic agents (or vehicle control) with continuous exposure for 72 h. Growth inhibition was measured by CellTiter Aqueous MTS reagent from Promega by comparing the absorbance at 490 nm of drug-treated cells to that of untreated controls set at 100%. 1C50 values were calculated using non-linear regression model (logarithmic inhibitor vs. normalized response-variable slope) in Graphpad Prism 7.

STING signaling in BMDCs = assay: BMDCs stimulated with STING agonist DMXAA; assay type: cell-based, mouse
Protocol: (§1) Blood was obtained by retro-orbital sampling at intermediate time points or experimental end points. Blood cells and plasma/sera were separated by centrifugation at 1,500×g for 5 min. at 4° C. Plasmaisera were sent out to Eve Technologies for cytokine array analysis (Chemokine Array 31-Plex and Mouse Procarta IFN 2-plex Featured Assay). Plasma/sera were applied to ELISA according to manufacturer's instructions. For in vitro experiments, cell culture supernatants were obtained by centrifugation at 1,500×g for 5 min. at 4° C. to remove all debris and cells, and were then subjected to ELISA analysis. IFN-β was detected using the LEGEND MAX™ Mouse IFN-β ELISA Kit (BioLegend).
(§2) About 50 to 100 mg of tumor samples were homogenized in 1 ml of TRIzol™ Reagent supplied with 200 μl of stainless steel beads and 0.2 ml of chloroform was added to the samples. Samples were vortexed vigorously for 15 seconds and then incubated at room temperature for 2 to 3 minutes. After centrifugation at 12,000×g for 15 minutes at 4° C., upper aqueous phase of the samples was carefully removed to a new tube and the total RNA was purified using an RNeasy® Mini Kit (Qiagen) according to manufactory's instruction. For the in vitro cultured cell samples, total RNA was isolated using an RNeasy® Mini Kit. The qPCR was performed on an Applied Biosystems 7300 machine after the total RNA was reverse transcribed to cDNA using the SuperScript® III First-Strand Synthesis System (Invitrogen). Primers used for qPCR were as follows: […]

[2] = system: STING pathway in BMDCs co-cultured with PBM cells; assay: Co-culture of BMDCs with olaparib-treated PBM tumor cells; assay type: cell-based, mouse
Protocol: as §1
Bone marrow cells were isolated from FVB/NJ mice and cultured in RPMI-1640 containing 10% FBS and 20 ng/ml GM-CSF. BMDCs (bone marrow derived dendritic cells) were harvested for in vitro co-culture assay on day 7 to day 10. About 3×10^5 PBM or PPM tumor cells were cultured in a 6-well plate for 24 hr. and then treated with DMSO or olaparib. After 24 hr incubation with DMSO, olaparib, or olaparib in combination with other drugs (cell cycle inhibitor or apoptosis inhibitor), drugs were removed and tumor cells were washed twice with PBS. BMDCs were added and co-cultured with PBM or PPM cells at a ratio of 1:1 in 1.5 ml culture media in the presence of GM-CSF (20 ng/ml) and lipofectamine (2 μl) for 24 hr. Co-cultured cells were harvested for flow cytometry analysis and floating cells (percentage of BMDCs is about 90%), or RNA analysis. Cell culture supernatants were collected for detection of IFN-β with the ELISA kit. BMDCs generated from C57BL/6J mice were applied for the coculture of BMDCs with ID8 tumor cells. Human dendritic cells purchased from Lonza were used for the coculture of human DCs with DMSO or olaparib-treated human ovarian cancer cells ([…] and UWB1.289+BRCA1).
as §2

[3] = system: PBM tumors (Trp53−/−; Brca1−/−; c-Myc); assay: Orthotopic PBM tumor allograft growth and survival (bioluminescence); assay type: in vivo, mouse; conditions: PBM tumors; agent given together with olaparib
Protocol: All animal experiments described in this study were performed according to the animal protocols approved by the DFCI Institutional Animal Care and Use Committee. Brca1^loxP/loxP [FVB/N] mice, bearing loxP sites in introns 4 and 13 of the Brca1 gene, and Trp53^loxP/loxP[FVB/N] mice bearing loxP in introns 2 and 10 of the p53 gene, were obtained from Dr. Jos Jonkers's laboratory (Netherlands Cancer Institute, Amsterdam, The Netherlands). These mice were intercrossed through multiple generations to create a colony of homozygous Trp53^loxP/loxP/Brca1^loxP/loxP double conditional knockout mice. Ovaries were harvested from 8-week-old female Trp53^loxP/loxP/Brca1^loxP/loxP mice. The ovaries were washed twice with phosphate-buffered and incubated in DMEM/F12 (Ham's) medium containing collagenase and dispase (stem cell technologies) for 40 min at 37° C. The epithelial cells were pelleted by centrifugation at 800×g and cultured in DMEM/F12 (Life Technologies) supplemented with 4% (vol/vol) FBS, 1% penicillin/streptomycin, 10 ng/mL EGF, 5 μg/mL insulin, 5 Cpg/mL transferrin, and 5 ng/mL sodium selenite. Ovarian surface epithelial (OSE) cells were cultured for 48 hr and then introduced with Adeno-Cre (University of Iowa) and lentiviruses expressing C-Myc gene (Addgene #36980) or control GFP. After two days of infection in vitro, OSE cells are aggregated and implanted into recipient mice. About 5×10^5 OSE cells (Trp53^−/−; Brca1^−/−; c-Myc) were injected into the right ovarian bursal cavities of 6- to 7-week-old female nude mice. In each mouse, the left ovarian bursa was injected with GFP-expressing OSE cells (Trp53^−/−; Brca1^−/−; GFP). PBM (Trp53^−/−; Brca1^−/−; c-Myc) ovarian tumors developed within three to six months after implantation of the genetically engineered OSE cells. The primary ovarian tumors were digested and orthotopically transplanted to FVB/NJ mice. The PPM GEM model (Trp53^−/−; Pten^−/−; c-Myc) was developed with OSE cells isolated from homozygous Trp53^loxP/loxP/Pten^loxP/loxP(FVB/NJ) double conditional knockout mice using the same strategy for generation of the PBM GEM model described above. For histological analysis, tumor pieces were fixed in 10% Formalin overnight and transferred to 70% ethanol. Embedding, sectioning and H&E staining was performed by scientists at the Harvard rodent histopathology core facility. The histological characteristics of high grade ovarian tumor were confirmed by two independent pathologists at Harvard Medical School.
Single cells were obtained by digestion of primary ovarian tumors in collagenase buffer and then cultured in MOT media (DMEM/F12, 0.6% FBS, 10 ng/ml EGF, hydrocortisone 1 μg/ml, cholera toxin 1 ng/ml, 100 μg/ml penicillin-streptomycin, 5 μM Y27632). […] The endpoints were determined by tumor burden and ascites. […]

[4] = system: STING pathway in BMDCs co-cultured with ID8 cells; assay: Co-culture of BMDCs with drug-treated WT or Brca1-null ID8 cells; assay type: cell-based, mouse; conditions: co-cultured with both Brca1-deficient and Brca1 proficient ID8 cells
Protocol: Brca-1 deficient ID8 cells were generated using a CRISPR double nickase plasmid. ID8 cells cultured in a 6-well plate were transfected with 2 μg/well of BRCA1 double nickase plasmid (sc419362-NIC, Santa Cruz Biotechnology) or control double nickase plasmid (SC-437281, Santa Cruz Biotechnology) using lipofectamine 3000 (Invitrogen). 48 hrs post-transfection, cells were passaged onto a 10 cm plate. After 24 h, puromycin (3 μg/mL) was added to the culture for selection. Puromycin resistant cells were selected and expanded. Due to a lack of a reliable mouse BRCA1 antibody for Western blot, cells were analyzed by DNA sequencing to confirm the disruption of functional Brca1 allele. To generate ID8 tumors, cultured ID8 cells were harvested and resuspended in serum free DMEM. Cells were then mixed with Matrigel (Corning). A total volume of 0.1 ml containing 5×10^6 ID8 cells and 40% Matrigel were injected subcutaneously into the flank of C57BL/6J mice.
Bone marrow cells were isolated from FVB/NJ mice and cultured in RPMI-1640 containing 10% FBS and 20 ng/ml GM-CSF. BMDCs (bone marrow derived dendritic cells) were harvested for in vitro co-culture assay on day 7 to day 10. About 3×10^5 PBM or PPM tumor cells were cultured in a 6-well plate for 24 hr. and then treated with DMSO or olaparib. […]

Structure (SMILES): Nc1ccn([C@@H]2O[C@H](CO)[C@@H](O)C2(F)F)c(=O)n1 [gemcitabine]
- IC50 values, Brca1-deficient lines in comparison to Brca1-proficient counterparts [1]: no substantial differences

Structure (SMILES): Cc1ccc2c(=O)c3cccc(CC(=O)O)c3oc2c1C [DMXAA, 5,6-dimethylxanthenone-4-acetic acid]
- IFN-β production from BMDCs in culture (STING signaling in BMDCs; DMXAA 5 μg/ml, 2 h): strong IFN-β production
- STING signaling in BMDCs (STING signaling in BMDCs; Western blot): activation of the STING signaling

Structure (SMILES): O=C(NCCCNc1nc(Nc2cccc(NC(=O)N3CCCC3)c2)ncc1I)c1cccs1 [BX795]
- effect on olaparib-induced IFNβ/CXCL10 expression and STING activation in co-cultured DCs ([2]; agent added to the co-culture): abrogated
- effect on olaparib-induced phosphorylation of TBK1 in CD11c dendritic cells ([2]; agent added to the co-culture): reduced
- effect of added agent on olaparib-induced tumor inhibition / antitumor activity of olaparib [3]: blocked the anti-tumor activity of olaparib; also recorded: attenuated
- effect on DMXAA-induced IFN-β production from BMDCs (STING signaling in BMDCs; BX795 2 μM, 2 h): abolished

Structure (SMILES): CC(NC(=O)C(NC(=O)OCc1ccccc1)C(C)C)C(=O)NC(CC(=O)O)C(=O)CF (stereo not drawn) [zVAD] (Cbz-Val-Ala-Asp-CH2F; configuration not given here)
- effect of apoptosis inhibitor on activation of DCs co-cultured with olaparib-treated PBM cells ([2]; zVAD 10 μM with olaparib 2.5 μM, 24 h pre-treatment): little effect

Structure (SMILES): Cn1ncnc1[C@H]1c2n[nH]c(=O)c3cc(F)cc(c23)N[C@@H]1c1ccc(F)cc1 [talazoparib]
- IC50 values, Brca1-deficient lines in comparison to Brca1-proficient counterparts [1]: much more sensitive

Structure (SMILES): CC(=O)O[C@H]1C(=O)[C@@]2(C)[C@H]([C@H](OC(=O)c3ccccc3)[C@]3(O)C[C@H](OC(=O)[C@H](O)[C@@H](NC(=O)c4ccccc4)c4ccccc4)C(C)=C1C3(C)C)[C@]1(OC(C)=O)CO[C@@H]1C[C@@H]2O [paclitaxel]
- phosphorylation of TBK1 and IRF3 in BMDCs [4]: increased
- IC50 values, Brca1-deficient lines in comparison to Brca1-proficient counterparts [1]: no substantial differences
